The target in one test is T1, human 5-HT1A receptor (Homo sapiens, UniProt P08908).
T1 sequence (P08908 1-422): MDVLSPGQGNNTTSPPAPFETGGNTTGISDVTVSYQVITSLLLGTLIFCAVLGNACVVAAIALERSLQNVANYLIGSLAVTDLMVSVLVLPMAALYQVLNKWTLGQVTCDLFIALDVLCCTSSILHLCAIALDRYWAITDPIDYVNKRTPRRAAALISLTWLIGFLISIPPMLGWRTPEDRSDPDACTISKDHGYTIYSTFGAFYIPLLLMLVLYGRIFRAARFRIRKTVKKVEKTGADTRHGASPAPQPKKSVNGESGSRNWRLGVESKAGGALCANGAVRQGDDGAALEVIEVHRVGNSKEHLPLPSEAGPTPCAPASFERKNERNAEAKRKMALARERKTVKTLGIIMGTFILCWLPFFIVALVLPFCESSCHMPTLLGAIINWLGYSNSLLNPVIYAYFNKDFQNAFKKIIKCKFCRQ
Nature of the test: cAMP HTRF functional assay, 5-HT1A agonist mode. In kind it is cell-based. The conditions noted are these: for 5-HT1A functional character: agonist mode, summary of Tables 4-5; for Top % Activation at maximal concentration, 5-HT1A (agonist mode): cAMP, % of reference agonist activity at its EC100. For orientation: TR-FRET usually uses a lanthanide donor and a delayed reading to cut background.

For test [1], the target named is T2, 5-HT2A receptor (Homo sapiens, UniProt P28223). Nature of the test: IP-One HTRF functional assay, 5-HT2A agonist mode. The class given is cell-based. Set-up: expressed in transfected cells. The conditions noted are these: % of reference agonist activity at its EC100.
T2 sequence (P28223 whole entry): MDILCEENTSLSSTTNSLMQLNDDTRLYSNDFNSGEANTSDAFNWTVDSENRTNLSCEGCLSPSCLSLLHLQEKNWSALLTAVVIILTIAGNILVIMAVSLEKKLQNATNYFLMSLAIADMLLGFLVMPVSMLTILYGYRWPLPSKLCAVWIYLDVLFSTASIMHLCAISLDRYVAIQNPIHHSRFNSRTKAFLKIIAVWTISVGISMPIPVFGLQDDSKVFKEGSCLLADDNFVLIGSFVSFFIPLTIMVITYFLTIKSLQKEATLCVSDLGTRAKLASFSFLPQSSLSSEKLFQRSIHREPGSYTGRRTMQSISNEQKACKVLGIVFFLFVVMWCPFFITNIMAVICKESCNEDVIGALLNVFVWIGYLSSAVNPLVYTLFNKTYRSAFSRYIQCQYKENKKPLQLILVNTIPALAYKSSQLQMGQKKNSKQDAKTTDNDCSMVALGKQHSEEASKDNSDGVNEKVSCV
Method: (§1) Example 4—Agonist or Antagonist Activity on Recombinant Human Dopamine and Serotonin Receptors Using IPOne HTRF and cAMP HTRF Assays
(§2) IP-One and cAMP HTRF assays are conducted with recombinant cell lines.
(§3) Agonist activity of test compounds is expressed as a percentage of the activity of the reference agonist at its EC100 concentration. Antagonist activity of the test compound is expressed as a percentage of the inhibition of reference agonist activity at its EC80 concentration.
The target of test [2] is T2, 5-HT2A receptor. In kind it is binding.

Each structure is given as a SMILES string. Marks after values point to notes of the source that are not given here.

Method for human 5-HT1A receptor: as §1, §2, §3

Turning to `[2H]c1c([2H])c([2H])c(CN2CC[C@@H](NC(=O)c3cc(Cl)c(NC)cc3OC)[C@H]2C)c([2H])c1[2H]` [Ex. 1 (10), 5-Chloro-N-((2R,3R)-1-((pentadeuterophenyl)methyl)-2-methylpyrrolidin-3-yl)-2-methoxy-4-(methylamino)benzamide], at human 5-HT1A receptor, the “5-HT1A functional character” value was “strong 5-HT1A agonist” and the “Top % Activation at maximal concentration, 5-HT1A (agonist mode)” value was 71^d %. The “Top % Activation at maximal concentration, 5-HT2A (agonist mode)” value on 5-HT2A receptor [1] is reported as 84^d %.

For the compound `CCN1CCC[C@H]1CNC(=O)c1c(OC)ccc(Br)c1OC` [S-remoxipride], at 5-HT2A receptor [2], the “binding to the 5-HT2A receptor in vitro” value is “do not even bind”.

Turning to `CCN1CCC[C@@H]1CNC(=O)c1c(OC)ccc(Br)c1OC` [R-remoxipride], at 5-HT2A receptor [2], the “binding to the 5-HT2A receptor in vitro” value is on record as “do not even bind”.

Turning to `[2H]C([2H])([2H])Oc1cc(NC)c(Cl)cc1C(=O)N[C@@H]1CCN(Cc2ccccc2)[C@@H]1C` [Ex. 2 (18), 5-Chloro-N-((2R,3R)-1-((phenyl)methyl)-2-methylpyrrolidin-3-yl)-2-trideuteromethoxy-4-(methylamino)benzamide], on human 5-HT1A receptor, the “5-HT1A functional character” value is given as 5-HT1A partial agonist and the “Top % Activation at maximal concentration, 5-HT1A (agonist mode)” value stood at 59%. Besides, the “Top % Activation at maximal concentration, 5-HT2A (agonist mode)” value on 5-HT2A receptor [1] came out at 94%.

(Values after patent US12365650B2, “Deuterated organic compounds and uses thereof” (ENGRAIL THERAPEUTICS, INC., priority 2023, dated 2025).)
